In patent US20260132140A1, “IMIDAZOLYL-AMINO-PYRAZINE-CARBONITRILS AS CHK-1 INHIBITORS” (BenevolentAI Bio Limited, priority 2022, published 2026) one finds IC50 data, which are given here for 28 compounds.

The target in assay [1] is T1, human Chk1 kinase (Homo sapiens, UniProt O14757).
T1 sequence (O14757 1-476): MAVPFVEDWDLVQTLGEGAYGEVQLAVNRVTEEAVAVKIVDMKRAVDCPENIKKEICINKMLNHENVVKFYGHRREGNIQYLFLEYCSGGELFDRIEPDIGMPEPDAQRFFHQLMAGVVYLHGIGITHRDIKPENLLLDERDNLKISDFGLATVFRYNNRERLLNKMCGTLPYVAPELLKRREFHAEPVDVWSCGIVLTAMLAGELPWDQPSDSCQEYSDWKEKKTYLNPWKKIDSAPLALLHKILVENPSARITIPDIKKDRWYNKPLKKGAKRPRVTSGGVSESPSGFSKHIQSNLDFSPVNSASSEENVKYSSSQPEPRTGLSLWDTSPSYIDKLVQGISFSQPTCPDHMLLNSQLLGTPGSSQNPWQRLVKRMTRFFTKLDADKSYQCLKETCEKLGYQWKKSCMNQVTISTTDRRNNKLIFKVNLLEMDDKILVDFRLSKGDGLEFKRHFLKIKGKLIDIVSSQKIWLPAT
Put plainly: biochemical.

Assay [2] deals with human Chk2 kinase (Homo sapiens, UniProt O96017). Description: biochemical.
Chain of human Chk2 kinase (O96017 whole entry): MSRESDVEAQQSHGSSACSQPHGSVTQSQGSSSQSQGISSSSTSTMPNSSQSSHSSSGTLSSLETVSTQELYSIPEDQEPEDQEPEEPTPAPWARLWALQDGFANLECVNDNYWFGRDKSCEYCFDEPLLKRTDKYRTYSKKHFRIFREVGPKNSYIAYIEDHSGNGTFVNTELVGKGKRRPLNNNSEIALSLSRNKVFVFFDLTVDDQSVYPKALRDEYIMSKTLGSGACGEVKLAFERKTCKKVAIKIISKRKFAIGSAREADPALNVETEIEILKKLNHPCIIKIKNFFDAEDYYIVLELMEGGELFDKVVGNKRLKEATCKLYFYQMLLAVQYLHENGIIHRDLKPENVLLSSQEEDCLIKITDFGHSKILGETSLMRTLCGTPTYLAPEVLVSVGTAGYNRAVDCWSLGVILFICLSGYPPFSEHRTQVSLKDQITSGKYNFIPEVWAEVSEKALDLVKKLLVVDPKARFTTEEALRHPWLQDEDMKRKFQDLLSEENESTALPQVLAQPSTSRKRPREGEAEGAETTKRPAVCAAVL

As for `C[C@H]1CCN1C1CCN(c2ccc(-n3cnc(Nc4cnc(C#N)cn4)c3)cc2)C1` (single isomer, unassigned) [Example 138], the IC50 (commonly the point on the concentration scale where inhibition reaches its midpoint) in assay [1] is < 0.01 µM; in assay [2], 1 to 10 µM.
As for `CC1(C)CCN1C1CCN(c2ccc(-n3cnc(Nc4cnc(C#N)cn4)c3)cc2)C1` (single isomer, unassigned) [Example 139, 5-((1-(4-(3-(2,2-Dimethylazetidin-1-yl)pyrrolidin-1-yl)phenyl)-1H-imidazol-4-yl)amino)pyrazine-2-carbonitrile], the IC50 is 0.0316 to 0.1 µM in assay [1] and > 100 µM in assay [2].
Consider `CC1(C)CCN1C1CCN(c2ccc(-n3cnc(Nc4cnc(C#N)cn4)c3)cc2)C1` (single isomer, unassigned) [Example 140, 5-((1-(4-(3-(2,2-Dimethylazetidin-1-yl)pyrrolidin-1-yl)phenyl)-1H-imidazol-4-yl)amino)pyrazine-2-carbonitrile], for which the IC50 in assay [1] is < 0.01 µM; in assay [2], 1 to 10 µM.
The matching figures for `N#Cc1cnc(Nc2cn(-c3cccc(N4CCC(N)C(F)(F)C4)c3)cn2)cn1` (single isomer, unassigned) [Example 166, 5-((1-(3-(4-Amino-3,3-difluoropiperidin-1-yl)phenyl)-1H-imidazol-4-yl)amino)pyrazine-2-carbonitrile]: 0.0316 to 0.1 µM and > 100 µM.
Regarding `N#Cc1cnc(Nc2cn(-c3ccc(CN4CC[C@@H](F)C4)c(Cl)c3)cn2)cn1` [Example 2, (R)-5-((1-(3-Chloro-4-((3-fluoropyrrolidin-1-yl)methyl)phenyl)-1H-imidazol-4-yl)amino)pyrazine-2-carbonitrile], the IC50 in assay [1] is 0.316 to 1 µM; in assay [2], > 100 µM.
For `COc1cc(CN2CC[C@@H](F)C2)cc(F)c1-n1cnc(Nc2cnc(C#N)cn2)c1` [Example 5, (R)-5-((1-(2-Fluoro-4-((3-fluoropyrrolidin-1-yl)methyl)-6-methoxyphenyl)-1H-imidazol-4-yl)amino)pyrazine-2-carbonitrile] the same measures were 0.316 to 1 µM and > 100 µM.
As for `N#Cc1cnc(Nc2cn(-c3ccc(CN4CC[C@@H](F)C4)cc3F)cn2)cn1` [Example 6, (R)-5-((1-(2-Fluoro-4-((3-fluoropyrrolidin-1-yl)methyl)phenyl)-1H-imidazol-4-yl)amino)pyrazine-2-carbonitrile], the results for the IC50 in assay [1] and in assay [2] were 0.1 to 0.316 µM and > 100 µM, respectively.
In the case of `CN1CCN(Cc2ccc(-n3cnc(Nc4cnc(C#N)cn4)c3)cc2)CC1` [Example 7, 5-((1-(4-((4-Methylpiperazin-1-yl)methyl)phenyl)-1H-imidazol-4-yl)amino)pyrazine-2-carbonitrile], the IC50 in assay [1] was 0.1 to 0.316 µM; in assay [2] it was > 100 µM.
As for `CN1C[C@H]2C[C@@H]1CN2c1ccc(-n2cnc(Nc3cnc(C#N)cn3)c2)cc1` [Example 9, 5-((1-(4-((1R,4R)-5-Methyl-2,5-diazabicyclo[2.2.1]heptan-2-yl)phenyl)-1H-imidazol-4-yl)amino)pyrazine-2-carbonitrile], the figures for the IC50 in assay [1] and in assay [2] were 0.01 to 0.0316 µM and 10 to 100 µM, respectively.
`CN1C[C@@H]2C[C@H]1CN2c1ccc(-n2cnc(Nc3cnc(C#N)cn3)c2)cc1` [Example 10, 5-((1-(4-((1S,4S)-5-Methyl-2,5-diazabicyclo[2.2.1]heptan-2-yl)phenyl)-1H-imidazol-4-yl)amino)pyrazine-2-carbonitrile]: the figures for the IC50 in assay [1] and in assay [2] were 0.01 to 0.0316 µM and 10 to 100 µM, respectively.
For `COc1cc(NC2CCN(C)CC2)ccc1-n1cnc(Nc2cnc(C#N)cn2)c1` [Example 13, 5-((1-(2-Methoxy-4-((1-methylpiperidin-4-yl)amino)phenyl)-1H-imidazol-4-yl)amino)pyrazine-2-carbonitrile] the same measures were 0.01 to 0.0316 µM and 10 to 100 µM.
As to `COc1cc(N(C)C2CCN(C)CC2)ccc1-n1cnc(Nc2cnc(C#N)cn2)c1` [Example 14, 5-((1-(2-Methoxy-4-(methyl(1-methylpiperidin-4-yl)amino)phenyl)-1H-imidazol-4-yl)amino)pyrazine-2-carbonitrile], the IC50 in assay [1] lay in the range of 0.01 to 0.0316 µM; in assay [2], 10 to 100 µM.
With `C[C@@H]1CN(C)CCN1c1ccc(-n2cnc(Nc3cnc(C#N)cn3)c2)cc1` [Example 16, (R)-5-((1-(4-(2,4-Dimethylpiperazin-1-yl)phenyl)-1H-imidazol-4-yl)amino)pyrazine-2-carbonitrile], the figures for the IC50 in assay [1] and in assay [2] were 0.01 to 0.0316 µM and 10 to 100 µM, respectively.
For the compound `C[C@H]1CN(C)CCN1c1ccc(-n2cnc(Nc3cnc(C#N)cn3)c2)cc1` [Example 17, (S)-5-((1-(4-(2,4-Dimethylpiperazin-1-yl)phenyl)-1H-imidazol-4-yl)amino)pyrazine-2-carbonitrile], the IC50 in assay [1] was in the range of 0.0316 to 0.1 µM; in assay [2] it was 10 to 100 µM.
Regarding `CN1CCN(c2ccc(-n3cnc(Nc4cnc(C#N)cn4)c3)nc2)CC1` [Example 18, 5-((1-(5-(4-Methylpiperazin-1-yl)pyridin-2-yl)-1H-imidazol-4-yl)amino)pyrazine-2-carbonitrile], the IC50 was in the range of 0.01 to 0.0316 µM in assay [1] and 1 to 10 µM in assay [2].
For the compound `CN1CCN(c2ccc(-n3cnc(Nc4cnc(C#N)cn4)c3)cn2)CC1` [Example 19, 5-((1-(6-(4-Methylpiperazin-1-yl)pyridin-3-yl)-1H-imidazol-4-yl)amino)pyrazine-2-carbonitrile], the IC50 fell in the range of 0.1 to 0.316 µM in assay [1] and 10 to 100 µM in assay [2].
For `CN1CCCN(c2ccc(-n3cnc(Nc4cnc(C#N)cn4)c3)cn2)CC1` [Example 20, 5-((1-(6-(4-methyl-1,4-Diazepan-1-yl)pyridin-3-yl)-1H-imidazol-4-yl)amino)pyrazine-2-carbonitrile], the figures for the IC50 in assay [1] and in assay [2] were 0.1 to 0.316 µM and 10 to 100 µM, respectively.
Regarding `CN1CCN(c2ccc(-n3cnc(Nc4cnc(C#N)cn4)c3)cc2F)CC1` [Example 21, 5-((1-(3-Fluoro-4-(4-methylpiperazin-1-yl)phenyl)-1H-imidazol-4-yl)amino)pyrazine-2-carbonitrile], the IC50 in assay [1] lay in the range of 0.0316 to 0.1 µM; in assay [2], 10 to 100 µM.
In the case of `CN1C[C@H](OCc2ccc(-n3cnc(Nc4cnc(C#N)cn4)c3)cc2)[C@@H](F)C1` [Example 24, 5-((1-(4-((((3S,4S)-4-Fluoro-1-methylpyrrolidin-3-yl)oxy)methyl)phenyl)-1H-imidazol-4-yl)amino)pyrazine-2-carbonitrile], the IC50 in assay [1] is 0.0316 to 0.1 µM; in assay [2], > 100 µM.
Take `CN1CCC(Nc2ccc(-n3cnc(Nc4cnc(C#N)cn4)c3)cc2)CC1` [Example 26, 5-((1-(4-((1-Methylpiperidin-4-yl)amino)phenyl)-1H-imidazol-4-yl)amino)pyrazine-2-carbonitrile]: the IC50 in assay [1] lay in the range of 0.01 to 0.0316 µM; in assay [2], 10 to 100 µM.
On to `CCN1CCN(c2ccc(-n3cnc(Nc4cnc(C#N)cn4)c3)c(OC)c2)CC1` [Example 27, 5-((1-(4-(4-Ethylpiperazin-1-yl)-2-methoxyphenyl)-1H-imidazol-4-yl)amino)pyrazine-2-carbonitrile], for which the values for the IC50 in assay [1] and in assay [2] were < 0.01 µM and 1 to 10 µM, respectively.
In the case of `Cc1cc(-n2cnc(Nc3cnc(C#N)cn3)c2)ccc1N1CCN(C)CC1` [Example 28, 5-((1-(3-Methyl-4-(4-methylpiperazin-1-yl)phenyl)-1H-imidazol-4-yl)amino)pyrazine-2-carbonitrile], the values for the concentration for half-maximal inhibition (IC50) in assay [1] and in assay [2] were 0.01 to 0.0316 µM and 10 to 100 µM, respectively.
The matching figures for `COc1cc(N2CCN3CCC[C@H]3C2)ccc1-n1cnc(Nc2cnc(C#N)cn2)c1` [Example 30, (S)-5-((1-(4-(Hexahydropyrrolo[1,2-a]pyrazin-2(1H)-yl)-2-methoxyphenyl)-1H-imidazol-4-yl)amino)pyrazine-2-carbonitrile]: < 0.01 µM and 10 to 100 µM.
For the compound `COc1cc(N2CCN(C)C[C@@H]2C)ccc1-n1cnc(Nc2cnc(C#N)cn2)c1` [Example 31, (S)-5-((1-(4-(2,4-Dimethylpiperazin-1-yl)-2-methoxyphenyl)-1H-imidazol-4-yl)amino)pyrazine-2-carbonitrile], the IC50 in assay [1] fell in the range of 0.01 to 0.0316 µM; in assay [2], 10 to 100 µM.
For `CN(C)C1CN(c2ccc(-n3cnc(Nc4cnc(C#N)cn4)c3)cc2)C1` [Example 32, 5-((1-(4-(3-(Dimethylamino)azetidin-1-yl)phenyl)-1H-imidazol-4-yl)amino)pyrazine-2-carbonitrile], the IC50 was < 0.01 µM in assay [1] and > 100 µM in assay [2].
Consider `CN1CCCN(c2cccc(-n3cnc(Nc4cnc(C#N)cn4)c3)c2)CC1` [Example 33, 5-((1-(3-(4-Methyl-1,4-diazepan-1-yl)phenyl)-1H-imidazol-4-yl)amino)pyrazine-2-carbonitrile], for which the IC50 lay within 0.0316 to 0.1 µM in assay [1] and 10 to 100 µM in assay [2].
On to `CN1CCCC12CN(c1cccc(-n3cnc(Nc4cnc(C#N)cn4)c3)c1)C2` [Example 34, 5-((1-(3-(5-Methyl-2,5-diazaspiro[3.4]octan-2-yl)phenyl)-1H-imidazol-4-yl)amino)pyrazine-2-carbonitrile], for which the IC50 in assay [1] is 0.01 to 0.0316 µM; in assay [2] it was 10 to 100 µM.
`N#Cc1cnc(Nc2cn(-c3cccc(N4CCN5CCC[C@H]5C4)c3)cn2)cn1` [Example 35, (S)-5-((1-(3-(Hexahydropyrrolo[1,2-a]pyrazin-2(1H)-yl)phenyl)-1H-imidazol-4-yl)amino)pyrazine-2-carbonitrile]: the figures for the IC50 in assay [1] and in assay [2] were 0.0316 to 0.1 µM and > 100 µM, respectively.
